Experimental data reported in PubChem BioAssay AID344 (DTP/NCI, 2004).
Several values for one entry are separate records, joined by “and”; a condition that tells them apart may be missing. Equal entries are not always repeated. Inconclusive results and toxic doses are left out.

System: mice, LPC-1 plasma cell tumor ip, median survival T/C
Assay: NCI In Vivo Anticancer Drug Screen. Data for tumor model Lieberman Plasma Cell No. 1 (LPC-1) (intraperitoneal) in unknown mice
Conditions: endpoint: median survival time, higher = longer survival
Procedure: The antitumor activity of compounds was measured in mice bearing transplantable tumors. Survival or tumor size were measured and the results are expressed as the measurement made in the treated group (T) divided by the measurement made in the vehicle treated control group (C). The tumor model used in this assay is Lieberman Plasma Cell No. 1 (LPC-1) (intraperitoneal) in unknown mice

CS(=O)(=O)OCCCCOS(C)(=O)=O
T/C (dose: 1.25 mg/kg/injection, schedule: Q01DX028 (sc), vehicle: carboxymethylcellulose (CMC)): 92 % of control
T/C (dose: 2.5 mg/kg/injection, schedule: Q01DX028 (sc), vehicle: carboxymethylcellulose (CMC)): 102 % of control
T/C (dose: 5.0 mg/kg/injection, schedule: Q01DX028 (sc), vehicle: carboxymethylcellulose (CMC)): 102 % of control
T/C (dose: 10.0 mg/kg/injection, schedule: Q01DX028 (sc), vehicle: carboxymethylcellulose (CMC)): 123 % of control

CS(=O)(=O)OCCN(CCOS(C)(=O)=O)c1ccc(/C=N/Nc2ncnc3nc[nH]c23)cc1
T/C (dose: 5.0 mg/kg/injection, schedule: Q03HX056 (sc), vehicle: other): 111 % of control
T/C (dose: 8.0 mg/kg/injection, schedule: Q01DX028 (sc), vehicle: carboxymethylcellulose (CMC)): 186 % of control
T/C (dose: 10.0 mg/kg/injection, schedule: Q03HX008 (sc), vehicle: other): 100 % of control
T/C (dose: 10.0 mg/kg/injection, schedule: Q03HX056 (sc), vehicle: other): 116 % of control
T/C (dose: 20.0 mg/kg/injection, schedule: Q03HX008 (sc), vehicle: other): 102 % of control
T/C (dose: 20.0 mg/kg/injection, schedule: Q03HX056 (sc), vehicle: other): 150 % of control
T/C (dose: 36.0 mg/kg/injection, schedule: Q01DX028 (sc), vehicle: carboxymethylcellulose (CMC)): 171 % of control
T/C (dose: 40.0 mg/kg/injection, schedule: Q03HX008 (sc), vehicle: other): 116 % of control
T/C (dose: 55.0 mg/kg/injection, schedule: Q01DX028 (sc), vehicle: carboxymethylcellulose (CMC)): 210 % of control
T/C (dose: 79.0 mg/kg/injection, schedule: Q01DX028 (sc), vehicle: other): 158 % of control
T/C (dose: 80.0 mg/kg/injection, schedule: Q01DX001 (sc), vehicle: other): 94 % of control
T/C (dose: 80.0 mg/kg/injection, schedule: Q01DX028 (ip), vehicle: other): 177 % of control
T/C (dose: 80.0 mg/kg/injection, schedule: Q01DX028 (sc), vehicle: carboxymethylcellulose (CMC)): 218 % of control and 102 % of control
T/C (dose: 80.0 mg/kg/injection, schedule: Q03DX004 (sc), vehicle: other): 111 % of control
T/C (dose: 80.0 mg/kg/injection, schedule: Q03HX008 (sc), vehicle: other): 108 % of control
T/C (dose: 119.0 mg/kg/injection, schedule: Q01DX028 (sc), vehicle: other): 210 % of control
T/C (dose: 120.0 mg/kg/injection, schedule: Q01DX028 (ip), vehicle: other): 166 % of control
T/C (dose: 120.0 mg/kg/injection, schedule: Q01DX028 (oral), vehicle: other): 122 % of control
T/C (dose: 120.0 mg/kg/injection, schedule: Q01DX028 (sc), vehicle: carboxymethylcellulose (CMC)): 175 % of control and 252 % of control
T/C (dose: 120.0 mg/kg/injection, schedule: Q01DX028 (sc), vehicle: other): 189 % of control
T/C (dose: 120.0 mg/kg/injection, schedule: Q03DX004 (sc), vehicle: other): 116 % of control
T/C (dose: 160.0 mg/kg/injection, schedule: Q01DX001 (sc), vehicle: other): 97 % of control
T/C (dose: 179.0 mg/kg/injection, schedule: Q01DX028 (sc), vehicle: other): 187 % of control
T/C (dose: 180.0 mg/kg/injection, schedule: Q01DX028 (ip), vehicle: other): 111 % of control
T/C (dose: 180.0 mg/kg/injection, schedule: Q01DX028 (sc), vehicle: carboxymethylcellulose (CMC)): 164 % of control and 238 % of control
T/C (dose: 180.0 mg/kg/injection, schedule: Q01DX028 (sc), vehicle: other): 166 % of control
T/C (dose: 180.0 mg/kg/injection, schedule: Q03DX004 (sc), vehicle: other): 116 % of control
T/C (dose: 269.0 mg/kg/injection, schedule: Q01DX028 (sc), vehicle: other): 166 % of control
T/C (dose: 270.0 mg/kg/injection, schedule: Q01DX028 (ip), vehicle: other): 122 % of control
T/C (dose: 270.0 mg/kg/injection, schedule: Q01DX028 (oral), vehicle: other): 119 % of control
T/C (dose: 270.0 mg/kg/injection, schedule: Q01DX028 (sc), vehicle: carboxymethylcellulose (CMC)): 202 % of control
T/C (dose: 270.0 mg/kg/injection, schedule: Q03DX004 (sc), vehicle: other): 116 % of control
T/C (dose: 320.0 mg/kg/injection, schedule: Q01DX001 (sc), vehicle: other): 105 % of control
T/C (dose: 640.0 mg/kg/injection, schedule: Q01DX001 (sc), vehicle: other): 105 % of control
